Measurements reported in patent US20150080468A1, “COMPOSITION AND METHOD FOR PROCESSING AND DELIVERING BIOAVAILABLE METHIONINE ANALOGS, DERIVATIVES, AND PRECURSORS, THEREOF” (QUALITY LIQUID FEEDS, priority 2013, published 2015).
Values after ≈ are worked out from the molar mass of the structure shown. Values joined by “and” are separate entries in the source; they are usually repeats but may differ in a detail not shown here. Equal values may be shown once.

Tests used:
[1] = Sub-zero freezing and thawing of 3×, 4× and 100% HMBi after the 56 day study; format: physicochemical
Experimental: Each bar represents a data collection day: 1, 7, 14, 21, 29, 35, 42, 50, and 56 days. […] Mixing or re-circulation every other day will also maintain positional and product stability plus decrease product viscosity. Additionally, lower temperatures were tried for the 3× and 4× plus the HMBi straight or 100% additive after the 56 day study. […] However, the 100% HMBi was frozen solid. The liquid 100% HMBi freezes or solidifies at temperatures below 54° F. or 12° C. when the HMBi liquid is acted upon by an outside force such as mixing or pumping. This “Superfusion” property of the liquid 100% HMBi requires expensive heated storage equipment and plumbing to allow for use in a feed mill environment. After 72 hours in a deep freeze, the 3× and 4× also froze solid.

[2] = Freeze/thaw study: viscosity, flowability and superfusion (Example 2); format: physicochemical
Experimental: A range of inclusion rates of the HMBi was used in the second example to further investigate the reduction or retardation of the superfusion property of the methionine analog (HMBi) added to a simple feed mill blend molasses liquid product.
Eight formulations were evaluated in regards to product positional stability, product pH, temperature, viscosity as affected by temperature and time. Viscosity measurements were being used to determine flow ability thus whether or not the product can be pumped without external heating. If HMBi is stored in conditions where its temperature drops below 54° F. (12.2° C.), it will solidify or undergo superfusion which will not allow it to be pumped. As you can see in FIG. 6, the HMBi is solid and will remain solid for several hours while thawing. During the thawing process, the HMBi will liquefy with a solid ball surrounded by liquid. This solid ball could potentially plug the inside fixture of a tank not allowing for flow to the pump. During the Example E2 study, it took about eight days of the 100% HMBi in sub-zero temperatures before it underwent superfusion. The container in FIG. 6 had to be shaken quite vigorously to get the HMBi to solidify. It was not moved until the late afternoon of day 7. By the morning of day 8, it was solid.
The containers used were clear PET plastic one quart capacity with wide mouth openings. All samples were placed in a sub-zero freezer until the samples were solid. As stated above, it took eight days for the 100% HMBi to undergo the superfusion process, thus all eight samples were frozen solid at about −9° F. (−22.8° C.) which is exactly what was needed for Example E2.
Once all samples were frozen, they were moved to a force-draft fume hood to allow warm air to be drawn over the jars to hasten thawing. When the samples were soft enough to get a metal tipped thermometer into the samples, temperatures were taken and recorded. Viscosity was measured once the samples thawed enough; temperatures were also taken at that time. The process of freezing and thawing was repeated once. These samples were not stirred or shaken except for the 100% HMBi sample to get it to undergo superfusion.
All formulated samples were mixed by the procedures and using the equipment described in Example E1. The same temperature probe, viscometer, and pH meter were also used.
Observations and data were collected when the samples had thawed enough to allow for viscosity and temperature measurements. The freezing and thawing was repeated once to confirm results. Laboratory room temperature was between 68 to 70° F. Any product having a viscosity over 5,000 cPs using a spindle sO5 will not flow nor be pumpable without added heat.

[3] = cited from earlier work
[4] = dairy cows; cited from earlier work

Structure (SMILES): CSCCC(O)C(=O)OC(C)C (stereo not shown) [100% HMBi, isopropyl ester of 2-hydroxy-4-methylthiobutanoic acid]
- Flowability / state ([1]; less than 0° F. or -17.8° C. for 24 hours): frozen solid
- Further time until return to a liquid state ([1]; thawing after deep freeze): about 12 hours
- Temperature at return to a liquid state ([1]; thawing after deep freeze): approximately 56 ° F.
- Viscosity ([2]; Dec. 31, 2009, initial, 77.3-79.6 °F, spindle sO1/sO2): 37 cPs
- Viscosity ([2]; Jan. 1, 2010, in freezer, -1.0 to 1.3 °F, spindle sO6 (100%: sO1)): 174 cPs and 173.6 cPs
- Viscosity ([2]; Jan. 2, 2010, in freezer, -3.9 to -0.2 °F, spindle sO6 (100%: sO1)): 157.6 cPs
- Physical state (no viscosity reading) ([2]; Jan. 14, 2010, 2:59-3:34 PM, thawing): solid
- Physical state (no viscosity reading) ([2]; Jan. 14, 2010, 2:59-3:34 PM, thawing, listed as 100%): SOLID
- Physical state (no viscosity reading) ([2]; Jan. 14, 2010, 3:50-4:15 PM, thawing): still solid
- Physical state (no viscosity reading) ([2]; Jan. 14, 2010, 3:50-4:15 PM, thawing, listed as 100%): SOLID
- Physical state (no viscosity reading) ([2]; Jan. 14, 2010, 4:40-5:10 PM, thawing, 47.7 °F): semi-solid
- Physical state (no viscosity reading) ([2]; Jan. 14, 2010, 4:40-5:10 PM, thawing, 47.7 °F, listed as 100%): SEMI-SOLID
- Physical state (no viscosity reading) ([2]; Jan. 15, 2010, 4:19-4:51 PM, second thaw, 45.0 °F): semi-solid
- Physical state (no viscosity reading) ([2]; Jan. 15, 2010, 4:19-4:51 PM, second thaw, 45.0 °F, listed as 100%): SEMI-SOLID
- Physical state (no viscosity reading) ([2]; Jan. 15, 2010, 10:55-11:20 AM, second freeze): solid
- Physical state (no viscosity reading) ([2]; Jan. 15, 2010, 10:55-11:20 AM, second freeze, listed as 100%): SOLID
- Physical state (no viscosity reading) ([2]; Jan. 15, 2010, 12:05-12:27, second thaw): semi-solid
- Physical state (no viscosity reading) ([2]; Jan. 15, 2010, 12:05-12:27, second thaw, listed as 100%): SOLID
- Time in sub-zero temperatures before superfusion ([2]; sub-zero freezer, shaken on day 7): about eight
- Viscosity at 20° C. ([3]; 20 °C): 19.2 mPa/s
- Crystallization (solidification, superfusion) temperature ([3]; ambient pressure): below 54 ° F.
- pH ([3]; in a 1% aqueous solution): 3.6
- Solubility ([3]; water at 30° C.): 25.1 mg/mL (≈ 131 mM)
- metabolizable methionine provided [4]: 370 g/kg
- rumen available HMB provided [4]: 370 g/kg
